Experiments:
ELIC WT = ELIC WT (Dickeya chrysanthemi, UniProt P0C7B7, INS163G); experiment: biochemical; assay type: binding, Erwinia chrisanthemi; details: ITC, ELIC WT in detergent (UDM), 4°C, single-site isotherm; read-out: effective dissociation constant (Keff)
ELIC T28D = ELIC T28D (Dickeya chrysanthemi, UniProt P0C7B7, INS163G/T28D); experiment: biochemical; assay type: binding, Erwinia chrisanthemi; details: read-out: Keff

**Q.** For `CC(=O)OCC[N+](C)(C)C` [acetylcholine], which Kd (ELIC WT) is on record?
**A.** 2500 µM

**Q.** And the Kd (ELIC T28D)?
**A.** 2000 µM
